The results in this text go back to PMC9969401, “Discovery of 2-(3-Benzamidopropanamido)thiazole-5-carboxylate Inhibitors of the Kinesin HSET (KIFC1) and the Development of Cellular Target Engagement Probes” (Journal of Medicinal Chemistry, 2023).

The structures appear in SMILES notation.

The target in test [1] is T1, recombinant full-length HSET (Homo sapiens, UniProt Q9BW19).
T1 construct: 5 nM full-length human N-terminal His-tag HSET; His-tag (N)
T1 sequence (Q9BW19 1-673): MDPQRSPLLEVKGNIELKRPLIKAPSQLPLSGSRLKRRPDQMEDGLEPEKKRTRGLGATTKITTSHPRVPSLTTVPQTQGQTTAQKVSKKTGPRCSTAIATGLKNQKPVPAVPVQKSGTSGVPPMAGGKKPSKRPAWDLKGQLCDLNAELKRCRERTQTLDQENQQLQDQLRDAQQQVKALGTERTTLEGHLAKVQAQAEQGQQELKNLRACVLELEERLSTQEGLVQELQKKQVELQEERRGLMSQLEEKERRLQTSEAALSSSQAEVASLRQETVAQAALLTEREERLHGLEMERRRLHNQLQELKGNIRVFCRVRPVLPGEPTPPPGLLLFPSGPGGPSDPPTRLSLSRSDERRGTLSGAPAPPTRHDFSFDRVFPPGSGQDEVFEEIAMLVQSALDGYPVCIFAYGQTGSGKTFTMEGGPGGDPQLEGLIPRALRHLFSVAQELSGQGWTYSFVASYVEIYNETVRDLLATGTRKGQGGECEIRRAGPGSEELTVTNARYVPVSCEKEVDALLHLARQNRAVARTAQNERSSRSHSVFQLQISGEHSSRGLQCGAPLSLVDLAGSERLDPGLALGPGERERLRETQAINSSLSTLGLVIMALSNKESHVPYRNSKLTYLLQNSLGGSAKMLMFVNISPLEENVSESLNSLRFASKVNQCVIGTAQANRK
The experiment in a line: ADP-Glo HSET assay (3 μM ATP), microtubule-stimulated ATPase. Format: biochemical. Particulars: preformed microtubules, 3 μM ATP; mean (±SD) n ≥ 3 (37 n = 2, 38 single determination) (Table 3); read-out: HSET ADP-Glo IC50. In outline:
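His-tagged full-length HSET (5 nM) or GST-Eg5 motor domain (4 nM), with 70 μg/mL paclitaxel-stabilised microtubules in HEPES pH 6.8 buffer, was preincubated with compound for 10 min. ATP was then added (3 or 500 μM for HSET, 4.8 μM for Eg5), followed by 80 min at 25 °C and ADP-Glo luminescence. IC50 was fitted with a four-parameter logistic.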
For orientation: ADP-Glo turns the ADP formed in a reaction into a luminescent signal.

Test [2] has as its target T2, full-length HSET (FL HSET) (Homo sapiens, UniProt Q9BW19).
T2 construct: 5 nM full-length human N-terminal His-tag HSET; His-tag (N)
T2 sequence (Q9BW19 1-673): T1 sequence (Q9BW19 1-673)
The experiment in a line: Fluorescence polarization probe Kd determination. The class given is binding. As to the method:
(§1) Steady-state fluorescence polarization binding assays were performed using the fluorescence-tagged probe 37. All assays were performed in a black ProxiPlate-384 Plus plate (PerkinElmer, 6008260) in a 10 μL volume in buffer containing 20 mM HEPES pH 7.5, 200 mM NaCl, 1 mM TCEP, 10 mM MgCl2, 0.1 mM Triton X-100, and 5% glycerol (v/v). Full-length human N-terminal His-tag HSET was used, with a final concentration of 2.5 nM 37 probe. The assays were sealed and incubated in the dark at 25 °C and then the FP signal was read on an EnVision multimode plate reader (PerkinElmer Life Sciences) using excitation at 620 nm and parallel and perpendicular emissions at 688 nm. All data processing was done using Prism (GraphPad Software).
For the probe Kd determinations, FL HSET final concentrations were used between 2000 and 0.5 nM. When present, preformed microtubules (Universal Biologicals Cambridge, bovine MT001-XL or porcine MT002-XL), which were reconstituted in 15 mM PIPES pH 7, 20 μM paclitaxel, or reconstitution buffer alone, were preincubated with HSET for 10 min and then added to the probe. The plate was read after 3 h of incubation in the dark at 25 °C. Kd values were determined using a 1:1 site binding model of the fluorescence polarization versus protein concentration.
(Polarisation of emitted light reports the rotation of a fluorescent probe.)

For test [3], the target named is T2, full-length HSET (FL HSET). The test can be described thus: Competitive binding fluorescence polarization assay (displacement of probe 37). The conditions noted are these: 400 nM FL HSET, 2.5 nM probe 37; read-out: IC50, displacement of FP probe 37 from FL HSET. The procedure: as §1
For the competition assays, 100 nL of compound dissolved in DMSO or DMSO alone was added to create 11 pt concentration response curves between 100 and 0.001 μM final concentrations. This assay used 400 nM FL HSET, and the plate was read after 2 h of incubation in the dark at 25 °C. IC50 values were determined as for the ATPase assay using a four-parameter statistical logistic curve fit.

Take `CCCOC(=O)c1sc(NC(=O)C[C@H](CCCNC(=O)CCCCC[N+]2=C(/C=C/C=C/C=C3/N(C)c4ccc(S(=O)(=O)O)cc4C3(C)C)C(C)(C)c3cc(S(=O)(=O)O)ccc32)NC(=O)c2cccc(-c3noc(C)n3)c2)nc1C` [Compound 37, 3,3-Dimethyl-1-(6-(((S)-4-(3-(5-methyl-1,2,4-oxadiazol-3-yl)benzamido)-6-((4-methyl-5-(propoxycarbonyl)thiazol-2-yl)amino)-6-oxohexyl)amino)-6-oxohexyl)-5-sulfo-2-((1E,3E)-5-((E)-1,3,3-trimethyl-5-sulfoindolin-2-ylidene)penta-1,3-dien-1-yl)-3H-indol-1-ium]: in test [1], the IC50 came out at 257 nM. Besides, the Kd worked out at 675 ± 148 nM in test [2] (FL HSET + MT buffer only) and 371 nM in test [2] (isolated full-length HSET, no microtubules). In the case of `Nc1ncnc2c1ncn2[C@@H]1O[C@H](COP(=O)(O)OP(=O)(O)OP(=O)(O)O)[C@@H](O)[C@H]1O` [ATP, adenosine 5′-triphosphate], the IC50 in test [3] stood at 436 ± 56 nM. Regarding `Nc1ncnc2c1ncn2[C@@H]1O[C@H](COP(=O)(O)OP(=O)(O)O)[C@@H](O)[C@H]1O` [ADP, adenosine diphosphate], the IC50 in test [3] was 400 ± 66 nM.

By IC50 is commonly meant the midpoint of a concentration-inhibition curve. As usually defined, the Kd is the concentration at which binding is half-saturated.
